# Test results from patent US10092568B2, “CBP/Catenin antagonists for enhancing asymmetric division of somatic stem cells” (University of Southern California, priority 2010, dated 2018).
# pIC50: −log10 of the molar value.
# Legend:
# [1] = test system: Wnt/catenin transcription (TOPFLASH) in SW480 colon carcinoma cells; test: TOPFLASH TCF/catenin luciferase reporter in SW480 colon carcinoma cells; type: cell-based; settings: Homo sapiens
# Source text: (§1) ICG-001. Applicant's pharmacologic tools were identified using cell-based forward chemical genomic screens of small molecule secondary structure template chemical libraries (22).
# [2] = test system: SW620 xenograft; test: Nude mouse SW620 xenograft model of colon cancer; type: in vivo
# Source text: Cancer. The importance of Wnt signaling in colorectal cancer is undisputed. Applicant's investigation on the therapeutic utility of ICG-001 therefore quite naturally began with colon cancer.
# [3] = test system: p300/beta-catenin interaction; test: Disruption of the p300/beta-catenin interaction; type: biochemical
# Source text: Applicant next mapped the binding domains between CBP and beta-catenin, as well as between p300 and beta-catenin. The C-terminal trans-activating region of beta-catenin (647-781) interacted with the same 1-111 amino acids of both CBP and p300 (23). However, only the interaction between CBP and beta-catenin was disrupted by ICG-001, and not the p300/beta-catenin interaction.
# IQ-1. In addition to ICG-001, a screen of a large chemical library for maintenance of pluripotency in mES cells led to the identification of another compound, termed IQ-1 (FIG. 2b). […] I-Q-1 diminishes the interaction between p300 and beta-catenin thereby increasing the CBP/beta-catenin interaction (24).
# [4] = test system: ER alpha receptor; test: ER alpha re-expression in triple negative breast cancer; type: cell-based
# [5] = test system: mitotic cells in the ventricular zone (VZ); test: Par3 localization assay of symmetric versus asymmetric divisions in the ventricular zone of embryonic brain; type: in vivo, mouse
# Source text: Taking advantage of the ready uptake and penetration through the placental barrier of applicant's small molecule Wnt modulators, applicant designed a series of experiments to investigate symmetric versus asymmetric divisions in the ventricular zone (VZ) of the brain during mouse embryonic development. Timed pregnant mice were topically treated for various time periods (1-3 days) with DMSO (vehicle control), the CBP/catenin antagonist ICG-001 or the p300/catenin antagonist IQ-1. Using a previously described protocol (56), the localization of […] (Par3) and DNA was examined in mitotic cells in the VZ. Par3 distributes symmetrically in cells that divide symmetrically and asymmetrically in cells that divide asymmetrically, whereas the DNA distributes symmetrically between the 2 cells. Using fluorescence microscopy, the percentage of mitotic cells dividing symmetrically or asymmetrically could be quantified. […] Antagonizing the CBP/catenin interaction with ICG-001 had no apparent effect yielding similarly, approximately 21% asymmetric divisions. […] Importantly, this decrease in asymmetric divisions upon treatment with IQ-1 could be rescued back essentially to control levels (i.e. ˜21%) by treatment with a 2-fold excess of ICG-001. Even further divergence in symmetric versus asymmetric divisions could be seen upon prolonged treatments. For example, treatment with IQ-1 (i.e., antagonizing p300/catenin interaction leading to increased usage of CBP) for 3 days (E13.5-16.5) decreased asymmetric divisions compared to control from 31% to 7%. […] This reporter mouse expresses EGFP, driven by the Tis21 promoter, in cells that have undergone neurogenic differentiative divisions.
# For example, Bultje et al. (Bultje R Neuron 63, 189-202, 2009) describe an assay to measure asymmetric distributions in the ventricular zone (vz) to evaluate asymmetric divisions during neurogenesis. Essentially this involves treating the animal (either adult or in utero) for a set period of time with compounds (either p.o., s.c., i.v. or topically) with compounds and then sacrificing the animal and examining the Par3 distribution (e.g., via immunohistochemistry) in mitotic cells vs. DNA distribution (e.g., using DAPI staining) Par3 distributes equally among the two daughter cells during symmetric division and unequally (essentially all in one daughter cell) during asymmetric differentiation.
# [6] = test system: cerebral deposition of Aβ; test: Aβ deposition in penta-transgenic mouse model of Alzheimer's disease; type: in vivo; settings: 50 mg/kg/day, 2 months
# Description: Applicant utilized a penta-transgenic mouse model of AD, which normally develops massive cerebral deposition of Aβ starting at 6 weeks of age. These mice were treated with either (A) ICG-001 (50 mg/kg/day) or (B) saline for 2 months. […] However, the effects of PS-1 mutations on the stability of beta-catenin, TCF/beta-catenin signaling, and thereby its potential role in AD remain controversial. […] In the CNS, EpB2 expression is associated with axonal guidance (16). […] In initial in vivo studies, applicant treated penta-transgenic mice that over express mutant APP (695) (Swedish (K670N, M671L), Florida (I716V) and London (V717I)) and PS-1 (M146L and L286V) mutations with ICG-001 for 2 months (months 2-4). These mice normally develop massive cerebral deposition of Aβ starting at 6 weeks of age.
# [7] = test system: human anagen hair follicles; settings: cited from earlier work
# [8] = target: p300 (Homo sapiens, UniProt Q09472); test: Binding to coactivator p300
# Sequence of p300 (Q09472 whole entry, species assumed): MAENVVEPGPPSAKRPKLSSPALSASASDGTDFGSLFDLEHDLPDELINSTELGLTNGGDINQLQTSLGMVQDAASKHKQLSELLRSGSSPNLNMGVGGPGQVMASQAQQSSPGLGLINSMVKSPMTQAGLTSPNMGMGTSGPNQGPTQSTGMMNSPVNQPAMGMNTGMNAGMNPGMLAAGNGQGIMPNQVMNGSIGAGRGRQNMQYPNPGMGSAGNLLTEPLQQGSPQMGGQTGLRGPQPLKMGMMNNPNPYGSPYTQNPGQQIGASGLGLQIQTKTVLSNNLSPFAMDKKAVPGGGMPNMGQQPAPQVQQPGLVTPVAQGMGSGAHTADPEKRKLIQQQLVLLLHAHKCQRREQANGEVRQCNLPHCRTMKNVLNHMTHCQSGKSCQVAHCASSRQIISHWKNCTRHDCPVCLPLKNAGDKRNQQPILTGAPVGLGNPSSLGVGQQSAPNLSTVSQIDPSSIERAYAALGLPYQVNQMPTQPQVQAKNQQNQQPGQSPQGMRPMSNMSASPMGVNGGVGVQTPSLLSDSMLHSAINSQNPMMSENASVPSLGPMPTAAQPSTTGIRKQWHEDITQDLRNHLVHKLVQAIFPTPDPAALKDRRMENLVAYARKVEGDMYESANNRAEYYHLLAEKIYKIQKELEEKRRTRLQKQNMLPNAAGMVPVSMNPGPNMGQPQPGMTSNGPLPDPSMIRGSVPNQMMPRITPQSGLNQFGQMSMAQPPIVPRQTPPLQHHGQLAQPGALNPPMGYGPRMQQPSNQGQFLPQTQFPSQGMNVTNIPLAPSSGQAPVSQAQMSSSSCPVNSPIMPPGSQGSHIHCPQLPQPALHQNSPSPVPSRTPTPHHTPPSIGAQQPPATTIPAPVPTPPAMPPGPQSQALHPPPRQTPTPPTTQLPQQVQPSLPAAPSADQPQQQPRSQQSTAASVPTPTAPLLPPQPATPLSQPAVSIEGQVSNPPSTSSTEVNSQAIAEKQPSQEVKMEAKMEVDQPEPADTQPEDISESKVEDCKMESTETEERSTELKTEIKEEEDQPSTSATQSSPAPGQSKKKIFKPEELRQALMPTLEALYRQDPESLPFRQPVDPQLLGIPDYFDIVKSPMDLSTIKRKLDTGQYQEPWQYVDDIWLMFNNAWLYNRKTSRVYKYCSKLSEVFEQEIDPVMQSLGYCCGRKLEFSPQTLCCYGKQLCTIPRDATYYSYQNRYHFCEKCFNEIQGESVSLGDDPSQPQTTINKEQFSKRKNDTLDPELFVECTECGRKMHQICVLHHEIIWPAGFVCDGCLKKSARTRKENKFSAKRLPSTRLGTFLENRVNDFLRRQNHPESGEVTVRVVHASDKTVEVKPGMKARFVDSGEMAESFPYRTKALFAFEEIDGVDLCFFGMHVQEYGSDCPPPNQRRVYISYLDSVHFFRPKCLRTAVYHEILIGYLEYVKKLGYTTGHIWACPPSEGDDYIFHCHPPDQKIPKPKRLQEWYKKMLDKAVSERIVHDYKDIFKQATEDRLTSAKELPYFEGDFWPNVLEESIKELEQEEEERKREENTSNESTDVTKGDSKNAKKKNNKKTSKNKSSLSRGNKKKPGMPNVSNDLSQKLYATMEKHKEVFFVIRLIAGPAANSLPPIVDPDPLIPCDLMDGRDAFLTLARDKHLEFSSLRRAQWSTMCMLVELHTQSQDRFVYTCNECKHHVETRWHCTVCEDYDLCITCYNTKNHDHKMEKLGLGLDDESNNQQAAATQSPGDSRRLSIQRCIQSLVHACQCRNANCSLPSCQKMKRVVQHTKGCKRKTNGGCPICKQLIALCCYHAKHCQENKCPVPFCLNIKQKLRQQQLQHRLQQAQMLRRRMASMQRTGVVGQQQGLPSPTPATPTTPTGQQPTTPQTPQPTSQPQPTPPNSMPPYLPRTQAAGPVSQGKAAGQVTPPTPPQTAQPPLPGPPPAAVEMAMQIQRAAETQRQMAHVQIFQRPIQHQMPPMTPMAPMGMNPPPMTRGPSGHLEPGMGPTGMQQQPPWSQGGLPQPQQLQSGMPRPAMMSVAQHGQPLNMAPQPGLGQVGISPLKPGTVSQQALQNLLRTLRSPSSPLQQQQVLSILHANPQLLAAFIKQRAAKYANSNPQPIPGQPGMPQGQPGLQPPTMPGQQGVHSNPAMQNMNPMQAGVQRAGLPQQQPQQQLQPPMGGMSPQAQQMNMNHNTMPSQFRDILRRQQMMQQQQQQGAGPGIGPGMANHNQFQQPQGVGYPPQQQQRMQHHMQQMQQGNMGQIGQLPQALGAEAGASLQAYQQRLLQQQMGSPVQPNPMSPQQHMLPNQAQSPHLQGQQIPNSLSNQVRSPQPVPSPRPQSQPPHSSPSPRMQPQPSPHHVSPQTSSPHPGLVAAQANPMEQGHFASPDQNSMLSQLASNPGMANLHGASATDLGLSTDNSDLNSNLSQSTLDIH
# Source text: as §1
# [9] = test system: Adenosine Receptor A2B (ADORA2B); test: Gene expression array of cells in culture; type: cell-based; settings: colonic epithelium, 10 uM
# [10] = test system: Colorectal cancer cells; test: ChIP and message of Wnt/beta-catenin target genes in colorectal cancer cells; type: cell-based
# Description: The effects of CBP/catenin antagonism on Wnt target genes are highly promoter specific. Colorectal cancer cells were treated with ICG-001, thereby disrupting the CBP/catenin interaction, and then examined for coactivator occupancy at the promoter regions of several Wnt/beta-catenin regulated target genes using a Chromatin Immuno-precipitation Assay (ChIP), a technique that allows one to determine what proteins are associated with a particular promoter. […] Furthermore, there are other Wnt/catenin-regulated genes that selectively utilize p300 for transcriptional coactivation. An interesting example of this differential coactivator usage concerns the expression of the gene EphB2, a known Wnt/TCF/beta-catenin target gene. As almost 90% of colon cancers have high aberrant Wnt/TCF/beta-catenin activation, it would follow that EpHB2 expression would be increased with colon cancer disease progression. This, however, is not the case as EphB2 expression is generally lost in late stage colorectal cancers (34). Furthermore, disruption of EphB2 in the Min mouse, which carries a defective APC tumor suppressor gene, results in highly invasive carcinomas as opposed to the normal adenomas.
smiles,measurement,setting,value
O=C1[C@H](Cc2ccc(O)cc2)N2C(=O)CCN(C(=O)NCc3ccccc3)[C@H]2CN1Cc1cccc2ccccc12 [ICG-001],pIC50,[1],4.52
same,tumor growth,[2],reducing tumor growth
same,p300/beta-catenin interaction,[3],without affecting
same,expression of the ER alpha receptor,[4],re-expression
same,"asymmetric divisions in the VZ after IQ-1, rescued",[5]; IQ-1 plus 2-fold excess of ICG-001,approximately 21%
same,defect in asymmetric divisions caused by IQ-1,[5]; excess ICG-001,corrects the defect
same,number of asymmetric divisions compared to vehicle control,[5]; topical or oral administration to pregnant mice,does not affect
same,asymmetric divisions in the VZ,"[5]; topical, 1 day, E13.5 to 14.5, DMSO approximately 21%",approximately 21%
same,Aβ staining in the parietal lobe,[6],significant (A) decrease
same,amyloid plaque formation,[6]; immunohistochemistry,significant decrease
same,hair fiber elongation,[7]; dose-dependent,significantly reduced
same,survivin expression,[7]; microdissected hair follicle,decreased
same,binding to p300,[8],not to its closely related homolog p300
same,increase of expression of adenosine receptors (ADORA2B),[9],~10 ×
same,expression of EphB2,[10]; colon cancer cells,increasing the expression
same,c-myc message,[10]; colorectal cancer cells,slight increase in message
same,cyclin D1 message,[10]; colorectal cancer cells,decrease in message
same,survivin message,[10]; colorectal cancer cells,decreased message
